{"source": "patent US20250275986A1", "about": "“COMBINATION OF A KETONE BODY OR KETOGENIC COMPOUND WITH AN ANALGESIC OR ANTIOXIDANT” (KETOSWISS AG, priority 2021, published 2025)", "test_system": "headache during an acute migraine attack", "assay": "Intensity of the headache (visual analogue scale 0 to 10) during acute migraine attacks in one migraine patient after intake of the substance(s)", "type": "in vivo, human", "description": "During the course of the trial, the patient had 17 recorded acute migraine attacks which were treated by either one of the following nine treatment regimes: • 1. 13 g flavoured mix of β-hydroxbutyrate (βHB) mineral salts termed “MigraKet” (a ketone body) • 2. 500 mg acetylsalicylic acid (a simple analgesic) • 3. 400 mg ibuprofen (a simple analgesic) • 4. 13 g MigraKet+500 mg acetylsalicylic acid (combination of a ketone body and a simple analgesic) • 5. 13 g MigraKet+400 mg ibuprofen (combination of a ketone body and a simple analgesic) • 6. 2.5 mg frovatriptan (a triptan) • 7. 13 g MigraKet+2.5 mg frovatriptan (combination of a ketone body and a triptan) • 8. 9 mg melatonin • 9. 13 g MigraKet+9 mg melatonin (combination of a ketone body and an antioxidant such as melatonin) The “MigraKet” consisted of:\n10g of a sodium, potassium, magnesium and calcium D-βHB mineral mix in a 1:1:2:2 ratio, and 3g of flavour (malic acid and natural lemon and lime flavour sweetend by stevia), dissolved in 0.51 of still water.\nThe intensity of the headache (pain) was recorded at the time of intake of the substance(s) (0h), and at five subsequent time-points during the course of one day (2h, 4 h, 8h, 12 h, 24h after substance intake). The intensity of the headache (pain) was categorized on a visual analogue scale from 0 (“no pain”) to 10 (“worst pain imaginable”). […]"}
{"smiles": "CN[C@@H]1CCc2[nH]c3ccc(C(N)=O)cc3c2C1", "note": "[Frovatriptan, frovatriptan]", "values": [{"measurement": "time for which the headache was eliminated", "setting": "after intake, melatonin with βHB: in 1 out of 2 instances, b14: taken when intensity about 0 to about 4", "result": "less than 12 h"}]}
{"smiles": "COc1ccc2[nH]cc(CCNC(C)=O)c2c1", "note": "[Melatonin, N-[2-(5-Methoxyindol-3-yl)ethyl]acetamid]", "values": [{"measurement": "effect on the headache in words", "setting": "over the course of 24 hours", "result": "did not ameliorate the headache"}]}
